Results published in ChEMBL document CHEMBL3044533, “Alkyl, aryl, alkylarylquinoline, and related alkaloids” (2007).
In brackets after ≈: the same amount, converted by molar mass.

Key:
Type in all cases: functional
[1] = system: Globisporangium ultimum; experiment: Growth inhibition of Pythium ultimum at 10 ug/ml; conditions: read-out: GI
[2] = system: Bipolaris oryzae; experiment: Growth inhibition of Bipolaris oryzae at 10 ug/ml; conditions: read-out: GI
[3] = system: Verticillium dahliae; experiment: Growth inhibition of Verticillium dahliae at 10 ug/ml; conditions: read-out: GI
[4] = system: Fusarium oxysporum; experiment: Growth inhibition of Fusarium oxysporum at 10 ug/ml; conditions: read-out: GI
[5] = system: Rhizoctonia solani; experiment: Growth inhibition of Rhizoctonia solani at 10 ug/ml; conditions: read-out: GI
[6] = system: Xanthomonas campestris pv. oryzae; experiment: Antibacterial activity against Xanthomonas campestris pv. oryzae
[7] = system: Pectobacterium carotovorum; experiment: Antibacterial activity against Pectobacterium carotovorum
[8] = system: Pyricularia oryzae; experiment: Growth inhibition of Magnaporthe oryzae at 10 ug/ml; conditions: read-out: GI
[9] = system: Agrobacterium tumefaciens; experiment: Antibacterial activity against Agrobacterium tumefaciens
[10] = system: Clavibacter michiganensis; experiment: Antibacterial activity against Clavibacter michiganensis
[11] = system: Ralstonia solanacearum; experiment: Antibacterial activity against Ralstonia solanacearum
[12] = system: Gaeumannomyces graminis; experiment: Growth inhibition of Gaeumannomyces graminis at 10 ug/ml; conditions: read-out: GI
[13] = system: Fusarium oxysporum; experiment: Growth inhibition of Fusarium oxysporum at 300 uM after 48 hr by microtiter assay; conditions: read-out: GI
[14] = system: Phomopsis obscurans; experiment: Growth inhibition of Phomopsis obscurans at 100 uM after 48 hr by microtiter assay; conditions: Paraphomopsis obscurans, read-out: GI
[15] = system: Colletotrichum acutatum; experiment: Growth inhibition of Colletotrichum acutatum at 300 uM after 48 hr by microtiter assay; conditions: read-out: GI
[16] = system: Colletotrichum fragariae; experiment: Growth inhibition of Colletotrichum fragariae at 300 uM after 48 hr by microtiter assay; conditions: read-out: GI
[17] = system: Colletotrichum gloeosporioides; experiment: Growth inhibition of Colletotrichum gloeosporioides at 100 uM after 48 hr by microtiter assay; conditions: read-out: GI
[18] = system: Plasmopara viticola; experiment: Growth inhibition of Plasmopara viticola at 30 uM after 48 hr by microtiter assay; conditions: read-out: GI
[19] = system: Phomopsis obscurans; experiment: Growth inhibition of Phomopsis obscurans at 30 uM after 48 hr by microtiter assay; conditions: Paraphomopsis obscurans, read-out: GI

Question: Which results are given for `CCCC/C=C/Cc1[nH]c2ccccc2c(=O)c1C`?
Answer: inhibition of growth at 10 µg/mL [1]: 37.7%; inhibition of growth at 10 µg/mL [2]: 63.9%; inhibition of growth at 10 µg/mL [3]: 82.8%; inhibition of growth at 10 µg/mL [4]: 34.4%; inhibition of growth at 10 µg/mL [5]: 50.9%; MIC [6]: 50 µg/mL (≈ 196 µM); MIC [7]: > 50 µg/mL; inhibition of growth at 10 µg/mL [8]: 70.8%; MIC [9]: > 50 µg/mL; MIC [10]: 10 µg/mL (≈ 39.2 µM); MIC [11]: > 50 µg/mL; inhibition of growth at 10 µg/mL [12]: 17.1%

Question: With `CCCCCC/C=C/Cc1[nH]c2ccccc2c(=O)c1C` as the compound, how does the inhibition of growth at 10 µg/mL [1] read?
Answer: The inhibition of growth at 10 µg/mL was 0%.

Question: And the inhibition of growth at 10 µg/mL [2]?
Answer: Its inhibition of growth at 10 µg/mL is 68%.

Question: What about the inhibition of growth at 10 µg/mL [3] of the same compound?
Answer: Its inhibition of growth at 10 µg/mL is 74.9%.

Question: What about the inhibition of growth at 10 µg/mL [4] of the same compound?
Answer: Its inhibition of growth at 10 µg/mL is 41.1%.

Question: And the inhibition of growth at 10 µg/mL [5]?
Answer: Its inhibition of growth at 10 µg/mL is 58.1%.

Question: What about the MIC [6] of the same compound?
Answer: The MIC was > 20 µg/mL.

Question: What about the MIC [7] of the same compound?
Answer: Its MIC is > 20 µg/mL.

Question: And the inhibition of growth at 10 µg/mL [8]?
Answer: Its inhibition of growth at 10 µg/mL is 49.9%.

Question: What about the MIC [9] of the same compound?
Answer: The MIC was > 20 µg/mL.

Question: And the MIC [10]?
Answer: Its MIC is 10 µg/mL (≈ 35.3 µM).

Question: And the MIC [11]?
Answer: Its MIC is > 20 µg/mL.

Question: And the inhibition of growth at 10 µg/mL [12]?
Answer: The inhibition of growth at 10 µg/mL was 54.7%.

Question: `O=C1C2CC=CCC2C(=O)N1SC(Cl)(Cl)Cl` (stereo unspecified) [CAPTAN] was tested. Which inhibition of growth at 300 µM [13] did it give?
Answer: The inhibition of growth at 300 µM was 100%.

Question: Which inhibition of growth at 300 µM [13] does the source give for `CCCCNC(=O)n1c(NC(=O)OC)nc2ccccc21` [BENOMYL] here?
Answer: Its inhibition of growth at 300 µM is 77%.

Question: What about the inhibition of growth at 100 µM [14] of the same compound?
Answer: The inhibition of growth at 100 µM was 100%.

Question: And the inhibition of growth at 300 µM [15]?
Answer: The inhibition of growth at 300 µM was 33%.

Question: And the inhibition of growth at 300 µM [16]?
Answer: The inhibition of growth at 300 µM was 76%.

Question: With `Cn1c(CCCCCCc2ccc3c(c2)OCO3)cc(=O)c2ccccc21` as the compound, how does the inhibition of growth at 100 µM [17] read?
Answer: Its inhibition of growth at 100 µM is 67.7%.

Question: What about the inhibition of growth at 30 µM [18] of the same compound?
Answer: Its inhibition of growth at 30 µM is 100%.

Question: What about the inhibition of growth at 300 µM [15] of the same compound?
Answer: Its inhibition of growth at 300 µM is 57%.

Question: What about the inhibition of growth at 300 µM [16] of the same compound?
Answer: The inhibition of growth at 300 µM was 57%.

Question: What about the inhibition of growth at 30 µM [19] of the same compound?
Answer: Its inhibition of growth at 30 µM is 100%.

Question: Which results are given for `CCCCCCCCCc1cc(=O)c2ccccc2[nH]1`?
Answer: inhibition of growth at 300 µM [13]: 37%; inhibition of growth at 300 µM [15]: 50%
